Measured values from a melting point compilation (Tetko et al.; mined from patent text by program, amines drawn as free bases though some values may be those of a salt).

Point of comparison: c1ccc(COc2n[nH]cc2-c2ccccc2)cc1, melting point 163 °C. Against it:
- N#Cc1cc(Br)cc2ccc(O)cc12 — higher, 222 to 224 °C
- COC(=O)c1ccccc1SSc1ccccc1C(=O)Nc1ccc(S(N)(=O)=O)cc1 — higher, 288 to 290 °C
- Oc1ccc(Cl)cc1C(O)c1ccc(Cl)cc1 (stereo unspecified) — lower, 106 to 107 °C
- CN1[C@@H](c2cccc(I)c2)c2ccccc2S1(=O)=O — lower, 156 °C
- O=S(=O)(Nc1ncc(Br)nc1OCc1cnccn1)c1cccc(Cl)c1Cl — higher, 207 to 209 °C
- CNS(=O)(=O)c1cn(C)c2ccccc2c1=O — higher, 248 to 250 °C
- Cc1noc(NS(=O)(=O)c2ccc(-c3ccccc3)s2)c1Br — lower, 132 °C
- COC(=O)COc1ccc(S(=O)(=O)C(Br)(Br)Br)cc1 — lower, 152 to 153 °C
- COC(=O)c1cc2c3cc(Cl)ccc3n(C)c2s1 — higher, 188 to 190 °C
- O=C(Cl)c1cc(OCc2ccccc2)cc([N+](=O)[O-])c1 — lower, 84 to 85 °C
- O=C(O)CC1CCc2c(cccc2OC2CCCCO2)C1 (stereo unspecified) — lower, 104 to 109 °C
- CC(C)(C(=O)O)c1cccc(O[Si](C)(C)C(C)(C)C)c1 — lower, 72 to 74 °C
- OCCOCC=C(c1ccc(Cl)cc1)c1ccc(Cl)cc1 — lower, 93 to 95 °C
- COCCSc1ccccc1S(=O)(=O)NC(=O)Nc1nc(C)nc(OC)n1 — lower, 127 to 128 °C
- CCOC(=O)C(=C1CCCN1C)c1ccc([N+](=O)[O-])cc1 — lower, 82 to 83 °C
- CCOC(=O)C1=C(N(C)C)N=C(C)C(C(=O)OC)C1c1cccc([N+](=O)[O-])c1 (stereo unspecified) — lower, 95 °C
- Cc1ccc(Oc2ccccc2C(=O)O)c(NS(=O)(=O)c2cc(C(F)(F)F)cc(C(F)(F)F)c2)c1 — higher, 165 to 166 °C
- COC(=O)COc1ccc(NC(=O)CO)cc1 — lower, 148 to 150 °C
- CCOC(=O)c1nc2scc(COCc3ccc(F)cc3)c2c(=O)[nH]1 — higher, 195 to 196 °C
- CC(C)Oc1ccc(/C=C(\NC(=O)c2ccc(OCCCCC3CC3)cc2)C(=O)NCCO)cc1 — lower, 53 to 55 °C
- Nc1ccc(Cl)cc1-c1ncn[nH]1 — higher, 170 to 175 °C
- Cn1cc(C(=O)O)c(=O)c2oc3ccccc3c(=O)c21 — higher, 308 to 312 °C
- CC(=O)N=NCc1ccc(OCCCCCOc2ccc(C(=O)N(C(C)C)C(C)C)c(Cl)c2)cc1 — lower, 59 to 61 °C
- OCCOc1c(Br)cc(Br)c2cccnc12 — lower, 128 to 131 °C
- CCCNc1nc(=O)c(C)cn1C1CC(N=[N+]=[N-])C(CO)O1 (stereo unspecified) — lower, 146 °C
- COc1ccc2nc(-n3ccnc3)nc(NCCS(C)=O)c2c1 (stereo unspecified) — higher, 238 to 242 °C
- Nc1cc(Cl)c(Sc2ccc(C(F)(F)F)cc2Cl)cc1F — lower, 80.8 °C
- O=C(NC(=CC(=O)[C@H](Cc1ccccc1)N(Cc1ccccc1)Cc1ccccc1)Cc1ccccc1)c1ccccc1 — lower, 131 to 133 °C
- COc1ccc(Cc2ccc(C#N)cc2)cc1 — lower, 41.5 to 43.5 °C
- CC1(C)O[C@@H]2[C@@H](O1)[C@H](C(=O)O)O[C@H]2n1cnc2c(N)nc(I)nc21 — higher, 187 to 190 °C
- COCCOc1cc2ncnc(Nc3cc(O)c(Cl)cc3F)c2cc1OC — higher, > 250 °C
- OCc1ncc(-c2ccc(Cl)cc2)o1 — lower, 100 to 104 °C
- CN1C(=O)C(c2cn(C)c3ccccc23)=C(c2cn(C)c3ccccc23)C1=O — higher, > 290 °C
- CC1(C)CC2(CC(C)(C)N1)NC(C)(CO)CO2 (stereo unspecified) — lower, 90 to 92 °C
- CCn1nc2c(N)nc3c(c2c1CC(C)(C)O)CCCC3 — higher, 202 to 204 °C
- CCN1C(=O)C(C)(C)C(=O)N(C)c2cc(CN(CCn3ccc4oc(C)cc4c3=O)Cc3cccc(C=O)c3)ccc21 — lower, 79 to 84 °C
- COc1ccc2oc(C(=O)c3cc(F)ccc3F)cc2c1 — lower, 75 to 78 °C
- CCOC(=O)c1cnn2c1c(O)nc1c(C)nn(C)c12 — higher, 246 to 247 °C
- CCOC(=O)c1cn(C2CC2)c2c(F)c(/C=C\c3cc(Cc4cnc(N)nc4N)cc(OC)c3OC)c(F)cc2c1=O — higher, > 220 °C
- CN(Cc1cc2c(=O)c(C(=O)NCc3ccc(Cl)cc3)cn(C)c2s1)CC(O)c1cccnc1 (single isomer, unassigned; (+)) — lower, 132 to 135 °C
- COC(=O)Cn1c(=O)c(=O)[nH]c2cc([N+](=O)[O-])c(Cl)cc21 — higher, > 260 °C
- COC(=O)c1cnnc2ccccc12 — lower, 57 to 58 °C
- O=C(O)COc1cccc2c1CCc1sc(SCCC(c3ccccc3)c3ccccc3)nc1-2 — lower, 128 to 130 °C
- CCC(O)(CC(=O)OC(C)(C)C)c1cc2n(c(=O)c1COC(C)=O)Cc1cc3ccccc3nc1-2 (stereo unspecified) — higher, 195 to 196 °C
- CC1Cc2cccc(S(N)(=O)=O)c2N1 (stereo unspecified) — lower, 110 to 112 °C
- CN1CC(CCN2CCN(c3ccc([N+](=O)[O-])cc3)CC2)OC1=O (stereo unspecified) — lower, 155 to 156 °C
- O=C(O)c1cc(Br)cc(OCc2ccccc2Cl)c1OCc1ccccc1Cl — higher, 186 to 187 °C
- CN1CCC(Nc2ccc([N+](=O)[O-])cc2)CC1 — lower, 153 to 155 °C
- COCCOc1cc(OC)c2c(=O)[nH]c(-c3ccc(N4C[C@@H](C)N(C(C)=O)[C@@H](C)C4)cc3)nc2c1 — higher, 225 to 227 °C
- Cc1ccccc1-c1c(CC(=O)O)c(=O)oc2ccc(Cl)cc12 — higher, 180 to 183 °C
- CC(=O)NCCCC(=O)c1ccc(Cl)cc1CCC(=O)O — lower, 90 to 92 °C
- CC(C)[C@H](NC(=O)OC(C)(C)C)[C@H]1CCn2c(c(C3=C(c4cn(-c5ccccc5)c5ccccc45)C(=O)OC3=O)c3ccccc32)C1 — lower, 148 to 150 °C
- CCOc1cccn2nc(-c3ccccc3)c(-c3ccc(=O)n(C(C)C)n3)c12 — lower, 157 to 158 °C
- CCOC(=O)C(=O)NC(=O)N1CC1C#N (stereo unspecified) — lower, 104 to 106 °C
- O=C(/C=C/c1ccc2ccccc2c1)Nc1cc(Cl)c(Cl)cc1S(=O)(=O)O — higher, 229 °C
- CCN1C(=O)C(C)(C)C(=O)N(C)c2cc(CN(CCn3ccc4ccsc4c3=O)Cc3cc(C)nn3C)ccc21 — lower, 127 to 128 °C
- COc1ccc(-c2ccc3c(c2)CCCc2c-3nc3ccc(F)cc3c2C(=O)O)cc1 — higher, > 300 °C
- CC(C)c1nc(CN(C)C(=O)NC(C(=O)NC(Cc2ccccc2)CC(O)C(Cc2ccccc2)NC(=O)OCc2ccno2)C(C)C)cs1 (stereo unspecified) — lower, 60 to 62 °C
- FC(F)(F)Oc1ccc(Nc2nc(Cl)nc(Cl)n2)cc1 — lower, 119 to 122 °C
- CN(C)c1ccc(-c2cccc(-c3ccnc4c(C(=O)c5cccs5)cnn34)c2)cc1 — higher, 200 to 202 °C
- COc1cc2c(cc1SC)CCN(C(C)=O)CC2 — lower, 138 to 140 °C
- Fc1ccccc1C1CCC(=S)Nc2ccc(Cl)cc21 (stereo unspecified) — higher, 190 °C
- O=C(CC=C(Cl)Cl)Oc1ccc([N+](=O)[O-])cc1 — lower, 80 to 90 °C
- COc1ccc(C2CC(=O)OC(=O)C2)cc1 — lower, 144 to 149 °C
- C1=CC(n2nc(-c3cccc4ccccc34)cc2-c2ccccc2)(n2nc(-c3cccc4ccccc34)cc2-c2ccccc2)CC=C1c1ccccc1 — higher, 264 °C
- COC(=O)c1csc(CCCc2coc3nc(N)nc(N)c23)c1 — lower, 156 to 157 °C
- O=C1NC(=O)c2ccccc2C1=CNc1ccc(-c2ccccc2)cc1 — higher, 261 to 262 °C
- COc1ccsc1CN=C(NC#N)Oc1ccccc1 — higher, 170 to 171 °C
- Nc1ncnc2c1nc(Br)n2Cc1ccccc1 — higher, 199 to 201 °C
- O=C(Cc1ccccn1)N1CCC(C2c3ccc(Cl)cc3CCc3cccnc32)CC1 (stereo unspecified) — lower, 81.7 to 82 °C
- C[C@@H](NC(=O)c1csc(-c2cccnc2)n1)[C@](O)(Cn1cncn1)c1ccc(F)cc1F — higher, 182 to 183 °C
- CCC12CCC3C4CCC(=O)C=C4CCC3C1CCC2OC(=O)CC(C)C (stereo unspecified) — lower, 82 to 89 °C
- CCC(=O)C1=C(O)CC(c2ccc(Oc3cccc(S(C)(=O)=O)c3)cc2)CC1=O (stereo unspecified) — lower, 110 to 114 °C
- CCOC(=O)c1c(N2CCN(C(=O)c3cccs3)CC2)c2sccc2[nH]c1=O — higher, 252 °C
- CCC1CCC(=O)C=C1c1ccc(OCC(=O)OC(C)(C)C(=O)O)c(Cl)c1Cl (stereo unspecified) — higher, 167 to 168 °C
- Nc1ncnc2c1c(-c1ccc(Oc3ccccc3)cc1)cn2CC(=O)NCCN1CCNCC1 — lower, 138 to 140 °C
- Cc1ccc(CN(C(=O)Nc2c(C(C)C)cccc2C(C)C)c2ccc(C(C)C)cc2)c(C)c1 — lower, 100 °C
- O=[N+]([O-])c1c(Cl)nc2ccccc2c1NCc1ccccn1 — higher, 179 to 182 °C
- CC(C)Oc1ccc(C(=O)NCCN2CCC(Oc3ccc(Cl)c(Cl)c3)CC2)cc1 — lower, 113 to 115 °C
- COc1ccccc1N1CCN(C(=O)c2ccccc2C(c2ccc(OC(C)C)cc2)c2ccc(OC(C)C)cc2)CC1 — lower, 120 to 121 °C
- O=C1C(=O)c2ccccc2C2=C1SCC1(CCN(C(=O)c3cn4c5c(cccc35)CCC4)CC1)O2 — higher, 265 to 267 °C
- Cc1noc2c(Oc3ncccc3C(=O)NCC3CCC(C(C)(C)O)CC3)cccc12 (stereo unspecified) — higher, 170 to 172 °C
- CCNC(=O)c1ccc(N2CCN(Cc3cc(C)c4c(c3)NC(=O)C(C)O4)CC2)c(C)c1 (stereo unspecified) — higher, 223 to 230 °C
- CCS(=O)(=O)Nc1ccc(C(=O)CN2CCN(c3ccncc3)CC2)cc1 — higher, 204 to 208 °C
- O=C(NC[C@H]1CN(c2ccc3c(c2)CCCc2cnn(C(=O)c4ccccc4)c2-3)C(=O)O1)c1ccccc1 — lower, 75 to 95 °C
- CCCCCS(=O)(=O)NC(=O)/C=C/c1cc(OCCCC)nn1Cc1ccc(C(F)(F)F)cc1Cl — lower, 130 to 132 °C
- NS(=O)(=O)c1ccc(-c2ccccc2-c2ccc(F)cc2)cc1 — higher, 187 to 188 °C
- COc1cc(C)c(C(=O)c2c(C)cccc2O)c(OC)c1OC — lower, 82 to 84 °C
- CC=CCC1C(=O)c2cc(OC)c(Cl)cc2C1(C)C (racemic) — lower, 86 °C
- COc1ccc(C)c(NC(=O)CCl)c1 — lower, 89 to 91 °C
- COc1cc2c(Nc3ccc(Sc4nccn4C)c(Cl)c3)c(C#N)cnc2cc1-c1ccc(CN2CCOCC2)cc1 — higher, 260 to 262 °C
- Cc1cc2cc(CN3CCCC3)cnc2cc1NC(=O)c1ccc(-c2ccccc2F)cc1 — lower, 148 to 149 °C
- COCc1c(Cl)nnc(Cl)c1OC — lower, 28 to 32 °C
- COc1ccc(Oc2cc(Cl)ccc2[N+](=O)[O-])c(C(=O)O)c1 — higher, 232 to 234 °C
- CC(C)(C)[Si](C)(C)OCCOc1cccnc1Br — lower, 81 °C
